Data: patent publication US20120258929A1, “AGENT THAT MODULATES PHYSIOLOGICAL CONDITION OF PESTS, INVOLVED IN INSECT PEPTIDYL-DIPEPTIDASE A ACTIVITY” (SUMITOMO CHEMICAL COMPANY, LIMITED, priority 2005, published 2012)

What was measured:
[1] = molecular target: aphid peptidyl-dipeptidase A (Aphis gossypii, UniProt A0A2K9Y4D7); test: Inhibition of aphid peptidyl-dipeptidase A activity, in vitro, substrate Abz-Gly-p-nitro-Phe-Pro-OH; format: biochemical, cotton aphid (Aphis gossypii); conditions: for IC50: concentrations 100 to 0.03 μM, calculated with XL fit, read-out: Activity of inhibiting peptidyl-dipeptidase A activity IC50, (μM)); for Activity of inhibiting peptidyl-dipeptidase A activity (inhibition degree (%) at 10 μM addition) / inhibition at 10 µM: test compound in DMSO, final concentration 10 μM, relative to DMSO control; for inhibition at 10 µM: read-out: Activity of inhibiting peptidyl-dipeptidase A activity (inhibition degree (%) at 10 μM addition)
Protocol: Selection of a compound which modulates the activity of a peptidyl-dipeptidase A was performed in a system where the activity of a peptidyl-dipeptidase A which is modulated by adding a test compound to an in vitro reaction system using the aphid peptidyl-dipeptidase A prepared in Example 7 is measured and evaluated.
Measurement of the activity of the aphid peptidyl-dipeptidase A was performed according to a method using Abz-Gly-p-nitro-Phe-Pro-OH (manufactured by Bachem, M-1100) as a substrate, as described in the previously reported article (Carmel et al. (1979) Clinica Chimica Acta, 93, 215-220).
For measuring the activity, the activity of the aphid peptidyl-dipeptidase A was measured when a test compound dissolved in DMSO was contained to a final concentration of 10 μM. In addition, the activity of the aphid peptidyl-dipeptidase A was measured when DMSO was contained in place of a test compound. Then, a ratio (%) of a measured value of the activity of the aphid peptidyl-dipeptidase A when a test compound dissolved in DMSO was contained, relative to a measured value of the activity of aphid peptidyl-dipeptidase A when DMSO was contained in place of the test compound was calculated, and a value obtained by subtracting the calculated value from 100% was adopted as an inhibition degree (%).
The activity of aphid peptidyl-dipeptidase A was measured when a test compound dissolved in DMSO was contained to a final concentration of each concentration of 100 μM, 30 μM, 10 μM, 3 μM, 1 μM, 0.3 μM, 0.1 μM or 0.03 μM.

[2] = tested on: Aphis gossypil; test: Pesticidal activity test, artificial feed rearing, surviving aphids after six days; format: in vivo
Protocol: A sterilized artificial feed having the following composition (Table 3) was prepared. […] Controlling value (%)={1−(Cb×Tai)/(Cai×Tb)}×100 Letters in the equation represent the following meanings.

[3] = test compound dissolved in DMSO to a final concentration of 50 ppm, otherwise as Example 9
[4] = test compound dissolved in DMSO to a final concentration of 640 μM, added at 0.5% volume of artificial feed, significant controlling value (e.g. 30% or more) = pesticidal activity

aphid peptidyl-dipeptidase A, sequence (A0A2K9Y4D7 entry or part of it): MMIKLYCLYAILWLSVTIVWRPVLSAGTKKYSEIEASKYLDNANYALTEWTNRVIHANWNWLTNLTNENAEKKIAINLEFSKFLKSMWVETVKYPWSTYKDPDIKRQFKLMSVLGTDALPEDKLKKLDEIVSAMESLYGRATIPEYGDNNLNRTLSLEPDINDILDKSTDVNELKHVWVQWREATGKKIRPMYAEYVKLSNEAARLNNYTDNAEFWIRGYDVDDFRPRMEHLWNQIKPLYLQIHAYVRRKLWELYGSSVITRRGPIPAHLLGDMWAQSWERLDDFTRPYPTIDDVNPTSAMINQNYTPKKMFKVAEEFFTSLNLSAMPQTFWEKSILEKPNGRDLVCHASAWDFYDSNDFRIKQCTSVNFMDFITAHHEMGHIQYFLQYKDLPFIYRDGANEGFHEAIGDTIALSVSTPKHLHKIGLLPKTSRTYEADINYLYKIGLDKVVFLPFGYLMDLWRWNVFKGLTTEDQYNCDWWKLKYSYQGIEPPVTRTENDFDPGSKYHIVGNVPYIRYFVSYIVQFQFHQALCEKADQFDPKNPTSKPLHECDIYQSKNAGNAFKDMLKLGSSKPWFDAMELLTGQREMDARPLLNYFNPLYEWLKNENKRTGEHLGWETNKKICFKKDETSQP

Molecule | IC50 [1] [µM] | Activity of inhibiting peptidyl-dipeptidase A activity (inhibition degree (%) at 10 μM addition) [1] [%] | Determination result of pesticidal activity ([2]; […], significant controlling value (e.g. 30% or more) = pesticidal activity) | Determination result of pesticidal activity [2, 3] | inhibition at 10 µM [1] [%] | Determination result of pesticidal activity [2, 4]
quinapril | 35.8 | 15 | Presence of pesticidal activity | Presence of pesticidal activity |  | 
CCOC(=O)[C@H](CCc1ccccc1)N[C@H]1CCc2ccccc2N(CC(=O)O)C1=O [benazepril] | 15.9 |  |  | Presence of pesticidal activity | 41 | Presence of pesticidal activity
CCN(CC)CCO[C@H]1CC[C@@]2(C)C(=CC[C@@H]3[C@@H]2CC[C@]2(C)C(=O)CC[C@@H]32)C1 [3-beta-[2-(diethylamino)ethoxy]androst-5-en-17-one] |  | 17 |  |  |  | Presence of pesticidal activity
CC12CCC3c4ccc(O)cc4CCC3C1C/C(=C\c1ccc(OC(F)(F)F)cc1)C2=O (stereo not drawn) [DF15164] |  |  |  | Absence of pesticidal activity |  | 
COC(=O)C(Cc1ccccc1)NC(=O)Nc1n[nH]c(=S)s1 (stereo not drawn) [MMP-2/MMP-3 inhibitor I] |  |  |  |  | 79 | Presence of pesticidal activity
CCOC(=O)[C@H](CCc1ccccc1)N[C@@H](C)C(=O)N1CCC[C@H]1C(=O)O [enalapril] |  |  |  |  | 98 | Presence of pesticidal activity
C[C@H](CS)C(=O)N1CCC[C@H]1C(=O)O [captopril] |  |  |  |  | 99 | 
CCOC(=O)[C@H](CCc1ccccc1)N[C@@H](C)C(=O)N1[C@H](C(=O)O)C[C@@H]2CCC[C@@H]21 [ramipril] |  |  |  |  | 16 | Presence of pesticidal activity
